Reference: ChEMBL document CHEMBL1151062, “Synthesis and biological activity of 3-alkyl- and 3-alkenyl-3-dephenyldocetaxels” (Bioorg Med Chem Lett, 1994)

Tests used:
[1] = test system: A549; test: Cytotoxicity against human A549 non small cell lung cell lines; type: functional, cell-based
[2] = test system: MCF7; test: Cytotoxicity against adriamycin resistant human breast MCF-7 cancer cell lines; type: functional, cell-based
[3] = test system: HT-29; test: Cytotoxicity against human colon HT-29 cell lines; type: functional, cell-based
[4] = test system: MCF7; test: Cytotoxicity against human breast MCF-7 cancer cell lines; type: functional, cell-based
[5] = test system: A121; test: Cytotoxicity against human A121 ovarian cells; type: functional, cell-based
[6] = test system: P388; test: Microtubule disassembly inhibitory activity against murine P388 cell line relative to the activity of paclitaxel; type: functional, Mus musculus
[7] = test system: P388; test: In vitro cytotoxicity against murine P388 cell lines; type: functional, cell-based; settings: Mus musculus
[8] = test system: P388; test: In vitro cytotoxicity against doxorubicin resistant P388 cell lines; type: functional, cell-based; settings: Mus musculus
[9] = test system: Mus musculus; test: In vivo antitumor activity administered iv, at a concentration of 20 mg/kg/day per mouse was determined against B16 melanoma cell lines on days 5,7,9 in B6D2F1 mice; type: functional
[10] = organism: Mus musculus; test: Time for median tumor to reach 1000 mg was determined against B16 melanoma cell lines at a concentration of 0.4 mL per mouse on days 5,7,9 in B6D2F1 mice; type: functional
[11] = organism: Mus musculus; test: Cell kill against B16 melanoma cell lines at a concentration of 0.4 mL per mouse on days 5,7,9 in B6D2F1 mice; type: functional
[12] = test system: Mus musculus; test: In vivo antitumor activity administered iv, at a concentration of 12.4 mg/kg/day per mouse was determined against B16 melanoma cell lines on days 5,7,9 in B6D2F1 mice; type: functional

Row | Structure (SMILES) | IC50 [1] [nM] | IC50 [2] [nM] | IC50 [3] [nM] | IC50 [4] [nM] | IC50 [5] [nM] | Ratio [6] | IC50 [7] [nM] | IC50 [8] [nM] | T/C [9] [%] | Median tumor [10] [days] | Log cell kill [11] | T/C [12] [%]
1 | C/C=C/[C@H](NC(=O)OC(C)(C)C)[C@@H](O)C(=O)O[C@H]1C[C@@]2(O)[C@@H](OC(=O)c3ccccc3)C3[C@](C)(C(=O)[C@H](OC(C)=O)C(=C1C)C2(C)C)[C@@H](O)C[C@H]1OC[C@@]31OC(C)=O (stereo partly specified) | 0.54 | 14 | 0.76 | 0.51 | 0.9 |  |  |  |  |  |  | 
2 | CC(=O)O[C@H]1C(=O)[C@@]2(C)C([C@H](OC(=O)c3ccccc3)[C@]3(O)C[C@H](OC(=O)[C@H](O)[C@H](CC(C)C)NC(=O)OC(C)(C)C)C(C)=C1C3(C)C)[C@]1(OC(C)=O)CO[C@@H]1C[C@@H]2O (stereo partly specified) | 0.98 | 36 | 3.2 | 4 | 3.8 |  |  |  |  |  |  | 
3 | CC(=O)O[C@@]12CO[C@@H]1C[C@H](O)[C@@]1(C)C(=O)[C@H](O)C3=C(C)[C@@H](OC(=O)[C@H](O)[C@H](/C=C/c4ccccc4)NC(=O)OC(C)(C)C)C[C@@](O)([C@@H](OC(=O)c4ccccc4)C12)C3(C)C (stereo partly specified) |  |  |  |  |  | 1.45 | 264 | 7490 |  |  |  | 
4 | CC(=O)O[C@@]12CO[C@@H]1C[C@H](O)[C@@]1(C)C(=O)[C@H](O)C3=C(C)[C@@H](OC(=O)[C@H](O)[C@H](CC(C)C)NC(=O)OC(C)(C)C)C[C@@](O)([C@@H](OC(=O)c4ccccc4)C12)C3(C)C (stereo partly specified) | 0.7 | 12 | 0.63 | 0.55 | 1.9 | 0.78 | 12.2 | 1590 | 5 | 26.03 | 1.97 | 
5 | CC(=O)O[C@@]12CO[C@@H]1C[C@H](O)[C@@]1(C)C(=O)[C@H](O)C3=C(C)[C@@H](OC(=O)[C@H](O)[C@H](CC(C)(C)C)NC(=O)OC(C)(C)C)C[C@@](O)([C@@H](OC(=O)c4ccccc4)C12)C3(C)C (stereo partly specified) |  |  |  |  |  | 1.45 | 125 | 6880 |  |  |  | 
6 | CC(=O)O[C@@]12CO[C@@H]1C[C@H](O)[C@@]1(C)C(=O)[C@H](O)C3=C(C)[C@@H](OC(=O)[C@H](O)[C@H](C=C(C)C)NC(=O)OC(C)(C)C)C[C@@](O)([C@@H](OC(=O)c4ccccc4)C12)C3(C)C (stereo partly specified) |  |  |  |  |  | 0.64 | 12.8 | 2360 |  | 27.54 | 2.25 | 8
7 | CC(=O)O[C@H]1C(=O)[C@@]2(C)C([C@H](OC(=O)c3ccccc3)[C@]3(O)C[C@H](OC(=O)[C@H](O)[C@H](C=C(C)C)NC(=O)c4ccccc4)C(C)=C1C3(C)C)[C@]1(OC(C)=O)CO[C@@H]1C[C@@H]2O (stereo partly specified) | 0.45 | 113 | 0.96 | 0.54 | 1.4 |  |  |  |  |  |  | 
8 | CC(=O)O[C@@]12CO[C@@H]1C[C@H](O)[C@@]1(C)C(=O)[C@H](O)C3=C(C)[C@@H](OC(=O)[C@H](O)[C@@H](NC(=O)OC(C)(C)C)c4ccccc4)C[C@@](O)([C@@H](OC(=O)c4ccccc4)[C@H]21)C3(C)C.O.O.O [DOCETAXEL] |  |  |  |  |  | 0.7 | 9.9 | 1860 |  |  |  | 
